The text below walks through data of ChEMBL document CHEMBL1201862, “PubChem BioAssay data set” (2004).

Active and inactive are the calls of the source.

One assay deals with T1, Leucine aminopeptidase (Plasmodium falciparum 3D7, UniProt Q8IL11).
T1 sequence (Q8IL11 whole entry): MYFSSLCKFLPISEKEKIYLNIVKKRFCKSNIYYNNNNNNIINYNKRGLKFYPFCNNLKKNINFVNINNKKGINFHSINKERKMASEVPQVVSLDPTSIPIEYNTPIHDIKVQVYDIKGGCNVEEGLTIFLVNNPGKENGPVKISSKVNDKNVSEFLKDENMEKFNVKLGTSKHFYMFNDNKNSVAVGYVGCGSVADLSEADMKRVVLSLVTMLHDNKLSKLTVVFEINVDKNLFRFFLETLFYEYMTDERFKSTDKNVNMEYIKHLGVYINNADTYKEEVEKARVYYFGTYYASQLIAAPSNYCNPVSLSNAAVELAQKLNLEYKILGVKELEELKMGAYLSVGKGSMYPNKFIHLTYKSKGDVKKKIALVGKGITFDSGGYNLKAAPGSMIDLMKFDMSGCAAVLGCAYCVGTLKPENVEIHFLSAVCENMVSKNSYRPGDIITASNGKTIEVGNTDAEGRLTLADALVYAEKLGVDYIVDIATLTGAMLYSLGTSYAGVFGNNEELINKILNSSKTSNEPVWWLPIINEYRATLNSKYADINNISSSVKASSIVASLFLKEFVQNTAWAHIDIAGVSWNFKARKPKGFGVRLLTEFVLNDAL
Kind of assay: P. falciparum M17LAP inhibitors, primary screen, biochemical, fluorogenic H-Leu-NHMec substrate, 1536-well (AID 1619). The assay is classed as functional.

Assay [1] concerns the target G-protein coupled receptor 55 (Homo sapiens, UniProt Q9Y2T6). Nature of the assay: GPR55 agonists via beta-arrestin recruitment, primary screen, imaging, U2OS cells, beta-arrestin-GFP redistribution (AID 1961). The assay is classed as functional.
Assay [2] can be described thus: cells.
For assay [3], the target named is Eukaryotic translation initiation factor 4E (Mus musculus, UniProt P63073). Nature of the assay: eIF4E–eIF4G protein interaction inhibitors, dose response, biochemical, TR-FRET (AID 855).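 Note: potency for disrupting eIF4E binding to eIF4GI seen as loss of FRET.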 The format is functional.
Eukaryotic translation initiation factor 4E, sequence (P63073 whole entry): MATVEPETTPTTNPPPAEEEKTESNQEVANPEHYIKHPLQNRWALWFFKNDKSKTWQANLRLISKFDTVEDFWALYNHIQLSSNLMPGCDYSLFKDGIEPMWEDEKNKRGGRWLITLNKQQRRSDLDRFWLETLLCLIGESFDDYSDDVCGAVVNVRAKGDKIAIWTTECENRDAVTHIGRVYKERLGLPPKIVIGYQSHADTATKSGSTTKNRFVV
The target in assay [4] is DNA dC->dU-editing enzyme APOBEC-3G (Homo sapiens, UniProt Q9HC16). Kind of assay: Dose Response confirmation of small molecule APOBEC3G DNA Deaminase Inhibitors via a fluorescence-based single-stranded DNA deaminase assay. [Related pubchem assays (depositor defined):AID493012, AID493028]. The format is functional.
DNA dC->dU-editing enzyme APOBEC-3G, sequence (Q9HC16 whole entry): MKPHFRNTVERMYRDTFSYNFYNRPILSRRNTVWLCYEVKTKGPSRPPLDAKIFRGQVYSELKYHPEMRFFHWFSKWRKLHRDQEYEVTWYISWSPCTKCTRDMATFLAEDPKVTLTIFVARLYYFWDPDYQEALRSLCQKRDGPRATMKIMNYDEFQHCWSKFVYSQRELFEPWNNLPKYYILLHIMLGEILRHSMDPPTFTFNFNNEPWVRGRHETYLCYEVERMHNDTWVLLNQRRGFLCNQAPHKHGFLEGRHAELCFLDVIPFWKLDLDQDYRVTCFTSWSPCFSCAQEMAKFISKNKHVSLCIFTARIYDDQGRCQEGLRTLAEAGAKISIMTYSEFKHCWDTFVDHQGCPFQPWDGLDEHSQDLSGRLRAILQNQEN
Assay [5] addresses DNA dC->dU-editing enzyme APOBEC-3A (Homo sapiens, UniProt P31941). Kind of assay: APOBEC3A DNA deaminase inhibitors, dose response, biochemical (AID 504722). The format is functional.
Assay [6] can be described thus: cells. The assay is classed as functional, cell-based.
The nature of assay [7]: cells. The format is functional, cell-based. The source holds these as a separate data set.
The next assay has as its target Estrogen receptor beta (Homo sapiens, UniProt Q92731). Kind of assay: ERβ–SRC-3 coactivator interaction inhibitors, confirmation, orthogonal assay, biochemical, ELISA, streptavidin-HRP readout (AID 1060).
For assay [8], the target named is Induced myeloid leukemia cell differentiation protein Mcl-1 (Homo sapiens, UniProt Q07820). The assay is classed as functional.
Induced myeloid leukemia cell differentiation protein Mcl-1, sequence (Q07820 whole entry): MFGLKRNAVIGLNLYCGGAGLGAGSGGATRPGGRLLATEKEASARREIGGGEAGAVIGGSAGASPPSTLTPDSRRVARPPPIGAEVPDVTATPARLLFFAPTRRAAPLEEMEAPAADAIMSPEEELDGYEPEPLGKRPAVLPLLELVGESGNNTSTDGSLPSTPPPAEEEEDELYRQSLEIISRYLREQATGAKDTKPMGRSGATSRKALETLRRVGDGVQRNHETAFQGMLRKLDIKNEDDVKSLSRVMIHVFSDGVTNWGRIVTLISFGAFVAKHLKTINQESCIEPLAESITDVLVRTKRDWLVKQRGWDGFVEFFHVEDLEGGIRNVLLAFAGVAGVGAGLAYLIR
Assay [9] deals with T2, Zinc finger protein mex-5 (Caenorhabditis elegans, UniProt Q9XUB2).
T2 sequence (Q9XUB2 whole entry): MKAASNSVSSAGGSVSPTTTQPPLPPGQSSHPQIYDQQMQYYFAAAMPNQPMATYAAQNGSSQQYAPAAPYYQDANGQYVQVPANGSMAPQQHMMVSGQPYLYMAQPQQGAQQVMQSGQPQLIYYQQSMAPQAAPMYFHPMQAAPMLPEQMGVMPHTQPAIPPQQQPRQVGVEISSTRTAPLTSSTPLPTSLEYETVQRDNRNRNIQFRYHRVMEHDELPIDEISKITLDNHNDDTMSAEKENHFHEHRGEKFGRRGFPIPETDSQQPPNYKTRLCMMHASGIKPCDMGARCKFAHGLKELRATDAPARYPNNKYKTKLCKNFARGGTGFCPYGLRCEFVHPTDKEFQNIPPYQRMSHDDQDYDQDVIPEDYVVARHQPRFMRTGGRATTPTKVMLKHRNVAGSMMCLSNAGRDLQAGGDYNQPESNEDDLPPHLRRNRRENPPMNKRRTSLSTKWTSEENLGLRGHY
Nature of the assay: MEX-5/TCR-2 RNA interaction inhibitors, dose response, biochemical, C. elegans, fluorescence polarization (AID 1960). On the technique in general: In fluorescence polarisation assays a small probe gives low polarisation when free and higher when bound to something large.

Assay [10] addresses T3, Lytic switch protein BZLF1 (Epstein-Barr virus (strain B95-8) (HHV-4) (Human herpesvirus 4), UniProt P03206).
T3 sequence (P03206 whole entry): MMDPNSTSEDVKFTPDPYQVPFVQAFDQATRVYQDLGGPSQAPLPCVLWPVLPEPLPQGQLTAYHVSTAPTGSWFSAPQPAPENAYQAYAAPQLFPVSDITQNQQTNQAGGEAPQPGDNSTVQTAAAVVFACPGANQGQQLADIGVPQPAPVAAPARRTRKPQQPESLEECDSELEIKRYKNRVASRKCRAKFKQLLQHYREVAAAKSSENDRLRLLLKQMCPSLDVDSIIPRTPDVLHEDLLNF
Kind of assay: EBV ZTA inhibitors, dose response, counter-screen for EBNA-1 inhibitor project, biochemical, fluorescence polarization, Epstein-Barr virus, 1536-well (AID 2377).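 Note: fluorescence polarization of Cy5-labelled ZRE DNA probe bound by purified Zta.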 Also on record: species or system human gammaherpesvirus 4.

Assay [11] concerns the target T4, RNA-binding protein pos-1 (Caenorhabditis elegans, UniProt G5EF15).
T4 sequence (G5EF15 whole entry): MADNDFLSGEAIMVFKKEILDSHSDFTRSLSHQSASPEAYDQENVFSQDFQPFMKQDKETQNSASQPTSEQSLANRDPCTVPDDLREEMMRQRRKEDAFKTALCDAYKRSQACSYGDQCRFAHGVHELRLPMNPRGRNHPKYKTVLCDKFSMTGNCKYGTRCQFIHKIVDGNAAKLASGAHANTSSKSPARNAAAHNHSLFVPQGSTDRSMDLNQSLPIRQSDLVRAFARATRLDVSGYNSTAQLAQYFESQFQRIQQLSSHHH
Kind of assay: inhibitors of POS-1/mex-3 RNA binding, dose response, biochemical, fluorescence polarization (AID 1964).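 Note: purified POS-1 fused to maltose binding protein made in E. coli; potency of compounds blocking POS-1 binding to fluorescent RNA.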

In assay [12] the target is T5, Epstein-Barr nuclear antigen 1 (Epstein-Barr virus (strain B95-8) (HHV-4) (Human herpesvirus 4), UniProt P03211).
T5 sequence (P03211 whole entry): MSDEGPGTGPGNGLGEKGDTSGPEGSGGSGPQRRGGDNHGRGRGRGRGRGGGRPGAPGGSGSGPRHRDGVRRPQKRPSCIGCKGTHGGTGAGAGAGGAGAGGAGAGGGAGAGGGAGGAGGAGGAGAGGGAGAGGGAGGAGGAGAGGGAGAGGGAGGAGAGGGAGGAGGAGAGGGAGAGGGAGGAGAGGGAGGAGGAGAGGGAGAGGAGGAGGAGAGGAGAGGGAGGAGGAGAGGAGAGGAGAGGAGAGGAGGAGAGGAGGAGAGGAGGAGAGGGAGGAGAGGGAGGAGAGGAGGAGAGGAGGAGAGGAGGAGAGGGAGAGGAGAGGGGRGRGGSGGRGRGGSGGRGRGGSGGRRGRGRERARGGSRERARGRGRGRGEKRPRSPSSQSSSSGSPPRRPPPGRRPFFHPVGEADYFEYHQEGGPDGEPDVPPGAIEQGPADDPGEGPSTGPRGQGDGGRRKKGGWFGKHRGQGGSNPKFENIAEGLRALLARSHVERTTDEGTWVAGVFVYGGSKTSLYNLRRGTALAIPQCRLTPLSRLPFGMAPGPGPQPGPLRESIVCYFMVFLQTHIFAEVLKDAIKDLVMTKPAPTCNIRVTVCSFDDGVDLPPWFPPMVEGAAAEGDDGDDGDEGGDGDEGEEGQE
Nature of the assay: EBNA-1 inhibitors, dose response, biochemical, fluorescence polarization, 1536-well (AID 2381).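 Note: fluorescence polarization of a Cy5 DNA probe bound by EBNA-1 protein.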 Further details: species or system human gammaherpesvirus 4.

For the next assay, the target named is T6, CAAX prenyl protease 2 (Saccharomyces cerevisiae S288c, UniProt Q03530).
T6 sequence (Q03530 whole entry): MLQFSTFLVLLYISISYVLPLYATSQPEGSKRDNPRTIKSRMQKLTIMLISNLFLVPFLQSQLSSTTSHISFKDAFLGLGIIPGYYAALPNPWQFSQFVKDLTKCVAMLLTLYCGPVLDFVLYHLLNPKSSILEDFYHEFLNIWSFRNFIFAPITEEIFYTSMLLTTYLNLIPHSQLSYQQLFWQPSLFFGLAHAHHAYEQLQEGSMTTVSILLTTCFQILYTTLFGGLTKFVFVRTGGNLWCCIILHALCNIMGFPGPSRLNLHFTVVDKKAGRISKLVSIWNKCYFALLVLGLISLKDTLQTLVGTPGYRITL
The format is biochemical.

Assay [13] concerns the target FAD-linked sulfhydryl oxidase ALR (Homo sapiens, UniProt P55789). Kind of assay: inhibitors of human ALR sulfhydryl oxidase, dose response, biochemical, H2O2 detection, luminescence, cherry-pick (AID 493248).
For the next assay, the target named is T7, Mucolipin-3 (Homo sapiens, UniProt Q8TDD5).
T7 sequence (Q8TDD5 whole entry): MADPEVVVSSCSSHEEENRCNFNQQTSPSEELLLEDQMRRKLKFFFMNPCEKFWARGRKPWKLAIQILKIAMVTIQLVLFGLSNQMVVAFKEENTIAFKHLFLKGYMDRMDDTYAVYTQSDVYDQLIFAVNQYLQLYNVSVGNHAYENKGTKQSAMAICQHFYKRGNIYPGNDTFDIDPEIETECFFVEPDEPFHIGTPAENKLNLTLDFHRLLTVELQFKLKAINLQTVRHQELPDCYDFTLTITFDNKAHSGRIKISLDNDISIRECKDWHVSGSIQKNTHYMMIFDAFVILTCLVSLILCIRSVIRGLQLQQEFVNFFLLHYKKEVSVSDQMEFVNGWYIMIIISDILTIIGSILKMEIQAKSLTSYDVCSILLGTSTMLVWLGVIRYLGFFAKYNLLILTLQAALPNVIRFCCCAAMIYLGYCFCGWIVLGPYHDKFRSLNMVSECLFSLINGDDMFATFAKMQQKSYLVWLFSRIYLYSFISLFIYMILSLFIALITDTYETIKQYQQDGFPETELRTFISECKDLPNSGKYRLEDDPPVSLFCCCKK
Nature of the assay: Dose response cell-based high-throughput screening assay for agonists of the transient receptor potential channel ML3 (TRPML3). [Related pubchem assays: 1526, 1424, 1448 ]. The format is functional.

A further assay concerns the target Ion channel NompC (Danio rerio, UniProt Q7T1G6). Nature of the assay: Fluorescence counterscreen assay for TRPML3 agonists: dose response cell-based high-throughput screening assay to identify agonists of the transient receptor potential channel N1 (TRPN1). [Related pubchem assays: 1526, 1424, 1448 ]. The assay is classed as functional. (Counterscreens check selectivity or assay interference.)

Ion channel NompC, sequence (Q7T1G6 whole entry): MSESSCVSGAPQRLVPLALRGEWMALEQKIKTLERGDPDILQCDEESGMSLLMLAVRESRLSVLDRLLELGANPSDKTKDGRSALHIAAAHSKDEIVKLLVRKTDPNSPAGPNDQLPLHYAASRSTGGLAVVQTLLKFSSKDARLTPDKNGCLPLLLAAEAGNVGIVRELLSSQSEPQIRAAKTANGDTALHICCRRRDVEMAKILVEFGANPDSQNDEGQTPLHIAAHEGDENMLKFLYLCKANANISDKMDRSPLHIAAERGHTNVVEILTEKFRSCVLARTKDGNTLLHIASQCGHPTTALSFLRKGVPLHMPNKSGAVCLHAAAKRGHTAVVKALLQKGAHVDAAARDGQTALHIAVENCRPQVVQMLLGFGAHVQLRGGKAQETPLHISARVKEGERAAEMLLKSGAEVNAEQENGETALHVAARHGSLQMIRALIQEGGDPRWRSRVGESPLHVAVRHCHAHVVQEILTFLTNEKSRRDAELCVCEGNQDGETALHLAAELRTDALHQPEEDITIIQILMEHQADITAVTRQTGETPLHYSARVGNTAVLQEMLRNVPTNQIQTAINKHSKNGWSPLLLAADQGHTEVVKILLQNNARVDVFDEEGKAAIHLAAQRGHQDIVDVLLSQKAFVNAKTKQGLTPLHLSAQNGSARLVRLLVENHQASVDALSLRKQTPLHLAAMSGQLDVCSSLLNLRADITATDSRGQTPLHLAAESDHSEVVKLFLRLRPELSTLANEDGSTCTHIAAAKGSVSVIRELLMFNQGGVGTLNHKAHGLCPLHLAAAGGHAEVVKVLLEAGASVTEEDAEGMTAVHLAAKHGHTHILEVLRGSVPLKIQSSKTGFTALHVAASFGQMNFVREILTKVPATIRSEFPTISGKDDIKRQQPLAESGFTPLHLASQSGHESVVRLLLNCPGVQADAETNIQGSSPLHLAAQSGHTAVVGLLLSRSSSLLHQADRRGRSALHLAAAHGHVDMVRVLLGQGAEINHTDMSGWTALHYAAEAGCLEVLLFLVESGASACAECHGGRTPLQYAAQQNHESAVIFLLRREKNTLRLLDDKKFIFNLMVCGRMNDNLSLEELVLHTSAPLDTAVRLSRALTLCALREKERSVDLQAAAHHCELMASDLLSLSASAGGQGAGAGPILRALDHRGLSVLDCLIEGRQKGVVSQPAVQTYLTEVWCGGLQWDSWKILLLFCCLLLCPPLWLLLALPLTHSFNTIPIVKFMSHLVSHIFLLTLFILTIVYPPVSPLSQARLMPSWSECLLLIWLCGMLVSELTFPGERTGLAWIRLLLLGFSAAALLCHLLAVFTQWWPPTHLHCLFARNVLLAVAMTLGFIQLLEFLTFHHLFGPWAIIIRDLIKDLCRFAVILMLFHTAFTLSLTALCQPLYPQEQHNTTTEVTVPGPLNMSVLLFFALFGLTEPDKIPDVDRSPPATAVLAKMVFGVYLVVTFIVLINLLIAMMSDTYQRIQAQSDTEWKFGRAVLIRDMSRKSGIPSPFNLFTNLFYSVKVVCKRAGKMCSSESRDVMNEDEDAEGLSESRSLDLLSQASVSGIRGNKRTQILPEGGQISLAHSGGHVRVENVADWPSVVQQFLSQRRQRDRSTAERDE
DNA dC->dU-editing enzyme APOBEC-3A, sequence (P31941 whole entry): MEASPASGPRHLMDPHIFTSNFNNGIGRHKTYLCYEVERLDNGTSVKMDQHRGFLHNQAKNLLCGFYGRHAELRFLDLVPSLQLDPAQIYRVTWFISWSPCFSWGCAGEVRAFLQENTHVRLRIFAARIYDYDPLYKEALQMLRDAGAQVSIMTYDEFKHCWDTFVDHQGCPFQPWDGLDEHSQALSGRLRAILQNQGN
G-protein coupled receptor 55, sequence (Q9Y2T6 whole entry): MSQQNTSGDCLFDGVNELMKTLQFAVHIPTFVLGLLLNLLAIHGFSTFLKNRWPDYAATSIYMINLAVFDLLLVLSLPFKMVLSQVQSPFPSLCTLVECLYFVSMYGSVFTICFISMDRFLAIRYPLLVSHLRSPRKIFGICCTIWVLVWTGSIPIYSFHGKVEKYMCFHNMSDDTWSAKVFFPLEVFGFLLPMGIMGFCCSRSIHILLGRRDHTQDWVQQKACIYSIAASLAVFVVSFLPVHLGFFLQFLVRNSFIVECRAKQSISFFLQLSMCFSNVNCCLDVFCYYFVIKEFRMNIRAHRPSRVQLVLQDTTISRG
FAD-linked sulfhydryl oxidase ALR, sequence (P55789 whole entry): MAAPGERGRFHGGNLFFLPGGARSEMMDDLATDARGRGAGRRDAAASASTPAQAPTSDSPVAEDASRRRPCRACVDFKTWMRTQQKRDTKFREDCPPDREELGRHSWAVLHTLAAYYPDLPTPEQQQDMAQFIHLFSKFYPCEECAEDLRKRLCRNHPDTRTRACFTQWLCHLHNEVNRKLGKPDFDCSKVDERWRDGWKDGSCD
Estrogen receptor beta, sequence (Q92731 whole entry): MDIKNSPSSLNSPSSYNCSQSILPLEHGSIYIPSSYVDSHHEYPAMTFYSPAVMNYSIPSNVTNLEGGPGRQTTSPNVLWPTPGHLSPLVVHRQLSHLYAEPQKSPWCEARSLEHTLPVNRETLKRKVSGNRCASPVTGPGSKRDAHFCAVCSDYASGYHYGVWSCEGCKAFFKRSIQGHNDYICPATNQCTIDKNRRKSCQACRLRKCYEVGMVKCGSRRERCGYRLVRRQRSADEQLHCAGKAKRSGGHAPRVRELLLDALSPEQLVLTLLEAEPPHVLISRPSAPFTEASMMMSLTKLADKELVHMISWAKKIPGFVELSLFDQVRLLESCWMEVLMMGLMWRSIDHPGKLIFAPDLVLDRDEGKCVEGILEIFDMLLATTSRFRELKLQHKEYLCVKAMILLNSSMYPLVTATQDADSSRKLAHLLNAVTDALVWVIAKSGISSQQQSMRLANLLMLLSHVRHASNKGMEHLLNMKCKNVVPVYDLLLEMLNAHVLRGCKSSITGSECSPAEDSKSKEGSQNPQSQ

As for `Nc1cc(N)nc(SCC(=O)Nc2ccc3c(c2)OCCCO3)n1`, the IC50 (in general, the concentration that inhibits the measured activity by half) on Leucine aminopeptidase was 14.4 µM (active).

In the case of `Nc1ccc(Oc2ccc3nc(-c4ccccc4)c(-c4ccccc4)nc3c2)cc1`, the concentration giving a half-maximal response (EC50) (usually the concentration that produces a half-maximal response) in assay [1] is 1.91 µM (active).

For the compound `CC(=O)N1CCN(C2=NC(=O)/C(=C/c3ccc(OS(=O)(=O)c4ccccc4)cc3)S2)CC1`, the 50% inhibitory concentration (IC50) in the assay “cells [2]” was 37.9 µM (active).

In the case of `CCCCNC(=O)CC1N=C2c3ccccc3N=C(SCC(=O)Nc3ccc(OC)cc3)N2C1=O` (stereo not given), the IC50 in the assay “cells [2]” was 37 µM (active).

Regarding `O=C1C2C3C=CC(C3)C2C(=O)N1CCCCN1C(=O)C2C3C=CC(C3)C2C1=O` (stereo not given), the IC50 in assay [3] was > 64 µM (inactive).

Regarding `CC(C)CSc1nnc(S)s1`, the IC50 in assay [4] is 3.32 µM (active); in assay [5], > 100 µM (inactive).

With `c1ccc(CSc2nnc(-c3ccco3)o2)cc1`, the EC50 in the assay “cells [6]” and in “cells [7]” was > 350 µM (not active) in each case.

In the case of `O=c1c2ccccc2cnn1Cc1nnc(S)n1-c1ccc(Cl)cc1`, the IC50 was 5.01 µM (active) in [4] and > 100 µM (inactive) in assay [5].

Regarding `Nc1c(C(=O)NCc2ccco2)sc2nc3c(cc12)C(=O)CCC3`, the IC50 on Estrogen receptor beta was 6.25 µM (not active); in assay [8], 3.38 µM (active); in assay [3], > 64 µM (inactive).

On to `CN(C)c1ccc(/C=C(\C#N)C(=O)NCc2ccco2)cc1`, for which the EC50 in assay [9] is 23.7 µM (active); in assay [11], > 300 µM (not active). Further, the IC50 is listed as 32 µM (not active) in assay [10] and 15 µM (not active) in assay [12].

As for `CCOC(=O)C1CCCN(C(=O)CCn2nnnc2CN2CCOCC2)C1` (stereo not given), the AC50 (in general, the midpoint of the concentration-response curve, whichever way the signal moves) on CAAX prenyl protease 2 is 27.9 µM (active).

In the case of `Cc1nc(-c2ccccc2)sc1-c1n[nH]c(=S)n1C`, the IC50 in assay [4] is 4.9 µM (active); in [5] it was > 100 µM (inactive).

With `Cc1cccc(Nc2ncnc3[nH]cnc23)c1`, in assay [13], the AC50 was 75.3 µM (active). In addition, the IC50 at Leucine aminopeptidase is 71.4 µM (active).

Take `CC(C)CC1NC(=O)N(Cc2cc(=O)n3ccsc3n2)C1=O` (stereo not given): the EC50 in the assay “cells [6]” and in the assay “cells [7]” was > 350 µM (not active) in each case.

`CCCN(CCC)S(=O)(=O)c1ccc(C(=O)N2CCCc3ccccc32)cc1`: the EC50 is 1.33 µM (active) on Mucolipin-3 and > 29.9 µM (not active) on Ion channel NompC.

With `COc1ccccc1CC(=O)Nc1ccc2c(c1)C(=O)NC2=O`, in assay [1], the EC50 is 14.9 µM (inactive).

Take `Cc1cccc(-c2noc(CN(C(C)C)S(=O)(=O)c3ccc(F)cc3)n2)c1`: the EC50 was 1.77 µM (active) at Mucolipin-3 and > 29.9 µM (not active) on Ion channel NompC.

As for `CC(C)[C@H](NS(=O)(=O)c1ccc2c(c1)OCCO2)C(=O)OCC(=O)Nc1cccc(Cl)c1Cl`, the EC50 was 3.69 µM (active) on Mucolipin-3 and > 29.9 µM (not active) on Ion channel NompC.

With `Cc1[nH]c2ccccc2c1/C=N/Nc1ccc([N+](=O)[O-])cc1`, the 50% inhibitory concentration (IC50) is 27 µM (active) in “cells [2]” and < 0.4 µM (active) in assay [8].

As for `Cc1nc(NS(=O)(=O)c2ccccc2)sc1C(=O)NN`, on Leucine aminopeptidase, the 50% inhibitory concentration (IC50) is 114 µM (active).
